Results published in patent US11780840B2 (Incyte Corporation, priority 2020, dated 2023).

What was measured:
[1] = molecular target: T1, catalytic domain (JH1, amino acids 826-1132) of human JAK2 (Homo sapiens, UniProt O60674); test: JAK2 LanthaScreen JH1 Binding Assay; details: JAK2 JH1 (1.5 nM), 50 nM fluorescent JAK2-JH1 tracer, 2 hours at 25° C.; read-out: JH1 BIND
T1 construct: catalytic domain (JH1, amino acids 826-1132) of human JAK2; FLAG (N); purchased Carna Biosciences 08-445-20N; host or cells: baculovirus expression system
Procedure, shortened: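 FLAG-tagged, biotinylated JAK2 JH1 (aa 826-1132, baculovirus-expressed; 1.5 nM) incubated 2 h at 25° C with compounds, 50 nM fluorescent tracer and 0.5 nM Streptavidin-Tb in Tris pH 7.5 buffer with MgCl2, Brij-35, BSA, EGTA, glycerol, DTT. Nonspecific binding defined with 2 mM ATP; TR-FRET IC50 from four-parameter fit.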

[2] = molecular target: T2, pseudo-kinase domain (JH2, amino-acids 536-812 with 3 surface mutations W659A, W777A, F794H) of human Wild Type JAK2 (Homo sapiens, UniProt O60674, F794H/W659A/W777A); test: JAK2 LanthaScreen JH2-WT Binding Assay; details: JAK2 JH2-WT (0.145 nM), 50 nM Fluorescent JAK2-JH2 Tracer, 1 hour at 25° C.; read-out: JH2 BIND WT
T2 construct: pseudo-kinase domain (JH2, amino-acids 536-812 with 3 surface mutations W659A, W777A, F794H); His (C); Avi (biotinylated) (C); purchased BPS Bioscience 79463; host or cells: baculovirus expression system
Procedure, shortened: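 Biotinylated His-Avi-tagged JAK2 JH2 (0.145 nM), baculovirus-expressed, incubated with compounds, 50 nM fluorescent JH2 tracer and 0.25 nM streptavidin-Tb, 1 h at 25° C in pH 7.5 Tris buffer with MgCl2 and DTT. Non-specific binding defined with 2 mM ATP. TR-FRET read; IC50 from four-parameter fit.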

[3] = molecular target: T3, pseudo-kinase domain (JH2, amino-acids 536-812 with 3 surface mutations W659A, W777A, F794H) of human V617F mutant JAK2 (Homo sapiens, UniProt O60674, F794H/V617F/W659A/W777A); test: JAK2 LanthaScreen JH2-V617F Binding Assay; details: JAK2 JH2-V617F (0.26 nM), 50 nM Fluorescent JAK2-JH2 Tracer, 1 hour at 25° C.; read-out: JH2 BIND V617F
T3 construct: pseudo-kinase domain (JH2, amino-acids 536-812 with 3 surface mutations W659A, W777A, F794H); His (C); Avi (biotinylated) (C); purchased BPS Bioscience 79498; host or cells: baculovirus expression system
Procedure, shortened: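 Biotinylated His-Avi-tagged JH2 protein was baculovirus-expressed and used at 0.26 nM. It was incubated with compound, 50 nM fluorescent JH2 tracer and 0.25 nM streptavidin-Tb for 1 h at 25 °C in pH 7.5 Tris buffer with MgCl2, BSA, DTT. Non-specific binding was defined with 2 mM ATP. IC50 came from four-parameter fits of TR-FRET signal.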

T2 sequence (O60674 536-812 W659A/W777A/F794H): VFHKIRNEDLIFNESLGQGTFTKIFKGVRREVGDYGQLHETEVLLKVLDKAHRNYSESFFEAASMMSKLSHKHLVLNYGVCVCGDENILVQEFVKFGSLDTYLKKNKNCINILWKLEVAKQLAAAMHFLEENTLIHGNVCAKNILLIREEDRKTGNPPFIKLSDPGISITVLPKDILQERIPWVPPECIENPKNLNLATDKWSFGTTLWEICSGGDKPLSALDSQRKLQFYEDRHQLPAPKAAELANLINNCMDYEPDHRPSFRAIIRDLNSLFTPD
T1 sequence (O60674 826-1132): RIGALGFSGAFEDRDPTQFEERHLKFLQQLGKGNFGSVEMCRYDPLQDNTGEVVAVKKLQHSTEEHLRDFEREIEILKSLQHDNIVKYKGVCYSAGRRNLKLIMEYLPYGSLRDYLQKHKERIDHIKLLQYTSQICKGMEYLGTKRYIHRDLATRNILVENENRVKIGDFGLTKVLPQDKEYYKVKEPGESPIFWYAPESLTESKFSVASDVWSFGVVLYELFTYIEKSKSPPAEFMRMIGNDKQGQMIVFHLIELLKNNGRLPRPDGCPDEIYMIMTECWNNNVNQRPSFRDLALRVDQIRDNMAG
T3 sequence (O60674 536-812 V617F/W659A/W777A/F794H): as the sequence (O60674 536-812 W659A/W777A/F794H) above, with V82F counted along it

| Compound | IC50 [1] [nM] | IC50 [2] [nM] | IC50 [3] [nM] |
| --- | --- | --- | --- |
| COc1ccc(-c2c(-c3cnn(Cc4ccncc4)c3)[nH]c3ncc4c(c23)n(C2CCCC2)c(=O)n4C)cc1 [Example 59, 1-Cyclopentyl-8-(4-methoxyphenyl)-3-methyl-7-(1-(pyridin-4-ylmethyl)-1H-pyrazol-4-yl)-3,6-dihydroimidazo[4,5-d]pyrrolo[2,3-b]pyridin-2(1H)-one] | 100 to 500 | ≤ 10 | ≤ 10 |
| Cn1ncc2cc(-c3c(-c4ccncc4)[nH]c4ncc5c(c34)n(C3CCCC3)c(=O)n5C)ccc21 [Example 60, 1-Cyclopentyl-3-methyl-8-(1-methyl-1H-indazol-5-yl)-7-(pyridin-4-yl)-3,6-dihydroimidazo[4,5-d]pyrrolo[2,3-b]pyridin-2(1H)-one] | > 1000 | ≤ 10 | ≤ 10 |
| Cn1ncc2cc(-c3c(-c4cccnc4)[nH]c4ncc5c(c34)n(C3CCCC3)c(=O)n5C)ccc21 [Example 61, 1-Cyclopentyl-3-methyl-8-(1-methyl-1H-indazol-5-yl)-7-(pyridin-3-yl)-3,6-dihydroimidazo[4,5-d]pyrrolo[2,3-b]pyridin-2(1H)-one] | > 1000 | ≤ 10 | ≤ 10 |
| COc1ccc(-c2[nH]c3ncc4c(c3c2-c2ccc3c(cnn3C)c2)n(C(C)C)c(=O)n4C)cn1 [Example 62, 1-Isopropyl-7-(6-methoxypyridin-3-yl)-3-methyl-8-(1-methyl-1H-indazol-5-yl)-3,6-dihydroimidazo[4,5-d]pyrrolo[2,3-b]pyridin-2(1H)-one] | > 1000 | 10 to 100 | 10 to 100 |
| COc1ccc(-c2[nH]c3ncc4c(c3c2-c2ccc3c(cnn3C)c2)n(C2CCOCC2)c(=O)n4C)cn1 [Example 63, 7-(6-Methoxypyridin-3-yl)-3-methyl-8-(1-methyl-1H-indazol-5-yl)-1-(tetrahydro-2H-pyran-4-yl)-3,6-dihydroimidazo[4,5-d]pyrrolo[2,3-b]pyridin-2(1H)-one] | > 1000 | ≤ 10 | ≤ 10 |
| COc1ccc(-c2[nH]c3ncc4c(c3c2-c2ccc3c(cnn3C)c2)n(C2CCCC2)c(=O)n4C)cn1 [Example 64, 1-Cyclopentyl-7-(6-methoxypyridin-3-yl)-3-methyl-8-(1-methyl-1H-indazol-5-yl)-3,6-dihydroimidazo[4,5-d]pyrrolo[2,3-b]pyridin-2(1H)-one] | > 1000 | ≤ 10 | 10 to 100 |
| CC(C)Oc1ccc(-c2[nH]c3ncc4c(c3c2-c2ccc3c(cnn3C)c2)n(C2CCCC2)c(=O)n4C)cn1 [Example 65, 1-Cyclopentyl-7-(6-isopropoxypyridin-3-yl)-3-methyl-8-(1-methyl-1H-indazol-5-yl)-3,6-dihydroimidazo[4,5-d]pyrrolo[2,3-b]pyridin-2(1H)-one] | > 1000 | 10 to 100 | 10 to 100 |
| Cn1ncc2cc(-c3c(-c4ccc(OC5CCOCC5)nc4)[nH]c4ncc5c(c34)n(C3CCCC3)c(=O)n5C)ccc21 [Example 66, 1-Cyclopentyl-3-methyl-8-(1-methyl-1H-indazol-5-yl)-7-(6-((tetrahydro-2H-pyran-4-yl)oxy)pyridin-3-yl)-3,6-dihydroimidazo[4,5-d]pyrrolo[2,3-b]pyridin-2(1H)-one] | > 1000 | 10 to 100 | 10 to 100 |
| Cn1ncc2cc(-c3c(-c4ccc(Oc5cccnc5)nc4)[nH]c4ncc5c(c34)n(C3CCCC3)c(=O)n5C)ccc21 [Example 67, 1-Cyclopentyl-3-methyl-8-(1-methyl-1H-indazol-5-yl)-7-(6-(pyridin-3-yloxy)pyridin-3-yl)-3,6-dihydroimidazo[4,5-d]pyrrolo[2,3-b]pyridin-2(1H)-one] | > 1000 | 10 to 100 | 10 to 100 |
| Cn1ncc2cc(-c3c(C4CC4)[nH]c4ncc5c(c34)n(C3CCCC3)c(=O)n5C)ccc21 [Example 68, 1-Cyclopentyl-7-cyclopropyl-3-methyl-8-(1-methyl-1H-indazol-5-yl)-3,6-dihydroimidazo[4,5-d]pyrrolo[2,3-b]pyridin-2(1H)-one] | 500 to 1000 | ≤ 10 | ≤ 10 |
| Cn1ncc2cc(-c3c(C4=CCCCC4)[nH]c4ncc5c(c34)n(C3CCCC3)c(=O)n5C)ccc21 [Example 69, 7-(Cyclohex-1-en-1-yl)-1-cyclopentyl-3-methyl-8-(1-methyl-1H-indazol-5-yl)-3,6-dihydroimidazo[4,5-d]pyrrolo[2,3-b]pyridin-2(1H)-one] | > 1000 | ≤ 10 | ≤ 10 |
| Cn1ncc2cc(-c3c(CCO)[nH]c4ncc5c(c34)n(C3CCCC3)c(=O)n5C)ccc21 [Example 70, 1-Cyclopentyl-7-(2-hydroxyethyl)-3-methyl-8-(1-methyl-1H-indazol-5-yl)-3,6-dihydroimidazo[4,5-d]pyrrolo[2,3-b]pyridin-2(1H)-one] | > 1000 | 100 to 500 | 100 to 500 |
| Cn1c(=O)n(C2CCCC2)c2c3c(-c4cc5cnccc5s4)c(C4CC4)[nH]c3ncc21 [Example 71, 1-Cyclopentyl-7-cyclopropyl-3-methyl-8-(thieno[3,2-c]pyridin-2-yl)-3,6-dihydroimidazo[4,5-d]pyrrolo[2,3-b]pyridin-2(1H)-one] | 500 to 1000 | ≤ 10 | 10 to 100 |
| Cn1ncc2cc(-c3c(C4CC4C#N)[nH]c4ncc5c(c34)n(C3CCCC3)c(=O)n5C)ccc21 (stereo not drawn) [Example 72, 2-(1-Cyclopentyl-3-methyl-8-(1-methyl-1H-indazol-5-yl)-2-oxo-1,2,3,6-tetrahydroimidazo [4,5-d]pyrrolo[2,3-b]pyridin-7-yl)cyclopropane-1-carbonitrile] | 500 to 1000 | ≤ 10 | 10 to 100 |
| COCC(=O)NC1CCC(n2c(=O)n(C)c3cnc4[nH]c(-c5cnn(CC(C)(C)O)c5)c(-c5ccc6c(cnn6C)c5)c4c32)CC1 (stereo not drawn) [Example 73, N-(4-(7-(1-(2-Hydroxy-2-methylpropyl)-1H-pyrazol-4-yl)-3-methyl-8-(1-methyl-1H-indazol-5-yl)-2-oxo-3,6-dihydroimidazo[4,5-d]pyrrolo[2,3-b]pyridin-1(2H)-yl)cyclohexyl)-2-methoxyacetamide] | > 1000 | ≤ 10 | ≤ 10 |
| CC(=O)NC1CCC(n2c(=O)n(C)c3cnc4[nH]c(-c5cnn(CC(C)(C)O)c5)c(-c5ccc6c(cnn6C)c5)c4c32)CC1 (stereo not drawn) [Example 74, N-(4-(7-(1-(2-Hydroxy-2-methylpropyl)-1H-pyrazol-4-yl)-3-methyl-8-(1-methyl-1H-indazol-5-yl)-2-oxo-3,6-dihydroimidazo[4,5-d]pyrrolo[2,3-b]pyridin-1(2H)-yl)cyclohexyl) acetamide] | 500 to 1000 | ≤ 10 | ≤ 10 |
| CC(C)n1c(=O)n(C)c2cnc3[nH]c(-c4cnn(CC(C)(C)O)c4)c(-c4cc5cnccc5s4)c3c21 [Example 75, 7-(1-(2-Hydroxy-2-methylpropyl)-1H-pyrazol-4-yl)-1-isopropyl-3-methyl-8-(thieno[3,2-c]pyridin-2-yl)-3,6-dihydroimidazo[4,5-d]pyrrolo[2,3-b]pyridin-2(1H)-one] | 500 to 1000 | ≤ 10 | ≤ 10 |
| CC(C)n1c(=O)n(C)c2cnc3[nH]c(-c4cnn(CC(C)(C)O)c4)c(-c4cnc(N5CCOCC5)s4)c3c21 [Example 76, 7-(1-(2-Hydroxy-2-methylpropyl)-1H-pyrazol-4-yl)-1-isopropyl-3-methyl-8-(2-morpholinothiazol-5-yl)-3,6-dihydroimidazo[4,5-d]pyrrolo[2,3-b]pyridin-2(1H)-one] | > 1000 | 10 to 100 | 10 to 100 |
| CC(C)n1c(=O)n(C)c2cnc3[nH]c(-c4cnn(CC(C)(C)O)c4)c(-c4ccc5cnccc5c4)c3c21 [Example 77, 7-(1-(2-Hydroxy-2-methylpropyl)-1H-pyrazol-4-yl)-1-isopropyl-8-(isoquinolin-6-yl)-3-methyl-3,6-dihydroimidazo[4,5-d]pyrrolo[2,3-b]pyridin-2(1H)-one] | > 1000 | 10 to 100 | 10 to 100 |
